Legend:
Test in all cases: KINOMEscan assay (Eurofins DiscoverX)
Format in all cases: binding
kinome (kinase panel) [1] = target: T1, kinome (kinase panel) (Homo sapiens, UniProt O14733); conditions: MKK7 (Entrez MAP2K7); 1000 nM; read-out: Percent Control
T1 construct: purchased Eurofins DiscoverX

kinome (kinase panel) [2] = target: T2, kinome (kinase panel) (Homo sapiens, UniProt P42336, M1043I); conditions: read-out: Percent Control
T2 construct: purchased Eurofins DiscoverX

kinome (kinase panel) [3] = target: T3, kinome (kinase panel) (Homo sapiens, UniProt Q9NY57); conditions: YANK2 (STK32B); 1000 nM; read-out: Percent Control
T3 construct: purchased Eurofins DiscoverX
T3 sequence (Q9NY57 whole entry): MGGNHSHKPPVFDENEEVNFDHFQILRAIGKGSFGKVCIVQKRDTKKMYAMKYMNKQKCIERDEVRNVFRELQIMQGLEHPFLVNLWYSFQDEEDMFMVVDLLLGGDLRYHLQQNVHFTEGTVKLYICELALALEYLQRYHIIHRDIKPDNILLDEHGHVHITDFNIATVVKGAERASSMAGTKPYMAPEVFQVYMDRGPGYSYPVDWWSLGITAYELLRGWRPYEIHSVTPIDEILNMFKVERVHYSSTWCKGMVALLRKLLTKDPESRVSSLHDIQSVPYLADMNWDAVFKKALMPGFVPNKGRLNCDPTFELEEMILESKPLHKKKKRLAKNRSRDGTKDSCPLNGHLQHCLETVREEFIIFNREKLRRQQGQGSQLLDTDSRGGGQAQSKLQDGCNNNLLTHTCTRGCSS

kinome (kinase panel) [4] = target: T4, kinome (kinase panel) (Homo sapiens, UniProt P12931); conditions: SRC; 1000 nM; read-out: Percent Control
T4 construct: purchased Eurofins DiscoverX

kinome (kinase panel) [5] = target: T5, kinome (kinase panel) (Homo sapiens, UniProt P78368); conditions: CSNK1G2; 1000 nM; read-out: Percent Control
T5 construct: purchased Eurofins DiscoverX

kinome (kinase panel) [6] = target: T6, kinome (kinase panel) (Homo sapiens, UniProt P22455); conditions: FGFR4; 1000 nM; read-out: Percent Control
T6 construct: purchased Eurofins DiscoverX

kinome (kinase panel) [7] = target: T7, kinome (kinase panel) (Homo sapiens, UniProt P16591); conditions: FER; 1000 nM; read-out: Percent Control
T7 construct: purchased Eurofins DiscoverX

kinome (kinase panel) [8] = target: T8, kinome (kinase panel) (Homo sapiens, UniProt P0C1S8); conditions: WEE2; 1000 nM; read-out: Percent Control
T8 construct: purchased Eurofins DiscoverX

kinome (kinase panel) [9] = target: T9, kinome (kinase panel) (Homo sapiens, UniProt P36888, R834Q); conditions: […]; 1000 nM; read-out: Percent Control
T9 construct: purchased Eurofins DiscoverX

kinome (kinase panel) [10] = target: T10, kinome (kinase panel) (Homo sapiens, UniProt P48730); conditions: CSNK1D; 1000 nM; read-out: Percent Control
T10 construct: purchased Eurofins DiscoverX

kinome (kinase panel) [11] = target: T11, kinome (kinase panel) (Homo sapiens, UniProt O95835); conditions: LATS1; 1000 nM; read-out: Percent Control
T11 construct: purchased Eurofins DiscoverX

kinome (kinase panel) [12] = target: T12, kinome (kinase panel) (Homo sapiens, UniProt P07949, M918T); conditions: read-out: Percent Control
T12 construct: purchased Eurofins DiscoverX
T12 sequence (P07949 29-1114 M918T): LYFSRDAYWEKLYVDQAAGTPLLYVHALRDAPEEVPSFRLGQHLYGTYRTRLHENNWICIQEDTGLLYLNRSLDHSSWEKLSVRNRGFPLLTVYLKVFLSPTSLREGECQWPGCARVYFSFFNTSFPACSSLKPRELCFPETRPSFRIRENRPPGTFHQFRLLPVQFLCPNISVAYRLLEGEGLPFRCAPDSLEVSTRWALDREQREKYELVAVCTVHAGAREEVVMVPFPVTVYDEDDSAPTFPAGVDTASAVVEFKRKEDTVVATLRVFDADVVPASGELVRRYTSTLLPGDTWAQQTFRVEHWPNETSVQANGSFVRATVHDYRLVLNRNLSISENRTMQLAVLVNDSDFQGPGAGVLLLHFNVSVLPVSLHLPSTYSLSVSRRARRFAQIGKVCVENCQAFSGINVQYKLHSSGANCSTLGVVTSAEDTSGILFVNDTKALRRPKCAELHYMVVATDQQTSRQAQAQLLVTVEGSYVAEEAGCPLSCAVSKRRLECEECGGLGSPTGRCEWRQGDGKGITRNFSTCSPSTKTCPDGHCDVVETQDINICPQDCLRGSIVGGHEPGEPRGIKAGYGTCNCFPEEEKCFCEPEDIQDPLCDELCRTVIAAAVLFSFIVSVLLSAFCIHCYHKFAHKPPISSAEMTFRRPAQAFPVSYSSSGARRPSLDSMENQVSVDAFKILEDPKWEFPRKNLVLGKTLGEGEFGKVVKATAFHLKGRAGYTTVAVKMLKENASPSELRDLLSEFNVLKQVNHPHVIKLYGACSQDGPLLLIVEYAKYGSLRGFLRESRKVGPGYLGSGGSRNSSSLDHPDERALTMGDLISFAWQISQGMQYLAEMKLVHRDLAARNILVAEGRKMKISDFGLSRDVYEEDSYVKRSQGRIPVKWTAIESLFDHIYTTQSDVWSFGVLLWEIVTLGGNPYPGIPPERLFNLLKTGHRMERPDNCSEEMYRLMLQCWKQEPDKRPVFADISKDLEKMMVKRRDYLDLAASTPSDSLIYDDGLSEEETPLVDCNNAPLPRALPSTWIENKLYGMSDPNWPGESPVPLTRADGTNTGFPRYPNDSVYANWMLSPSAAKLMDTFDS

kinome (kinase panel) [13] = target: T13, kinome (kinase panel) (Homo sapiens, UniProt Q02779); conditions: MLK2 (Entrez MAP3K10); 1000 nM; read-out: Percent Control
T13 construct: purchased Eurofins DiscoverX

kinome (kinase panel) [14] = target: T14, kinome (kinase panel) (Homo sapiens, UniProt P42685); conditions: FRK; 1000 nM; read-out: Percent Control
T14 construct: purchased Eurofins DiscoverX

kinome (kinase panel) [15] = target: T15, kinome (kinase panel) (Homo sapiens, UniProt P53778); conditions: p38-gamma (Entrez MAPK12); 1000 nM; read-out: Percent Control
T15 construct: purchased Eurofins DiscoverX
T15 sequence (P53778 whole entry): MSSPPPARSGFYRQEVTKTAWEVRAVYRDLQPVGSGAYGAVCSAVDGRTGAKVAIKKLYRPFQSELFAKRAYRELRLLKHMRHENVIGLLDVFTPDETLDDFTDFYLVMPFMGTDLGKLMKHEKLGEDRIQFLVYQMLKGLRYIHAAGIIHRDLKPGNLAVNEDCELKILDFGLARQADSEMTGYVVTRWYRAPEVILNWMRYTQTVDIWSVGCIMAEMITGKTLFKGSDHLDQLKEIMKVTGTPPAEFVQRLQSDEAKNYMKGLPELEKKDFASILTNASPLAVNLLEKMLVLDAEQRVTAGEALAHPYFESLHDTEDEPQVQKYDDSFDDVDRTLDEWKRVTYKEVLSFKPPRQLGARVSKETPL

kinome (kinase panel) [16] = target: T16, kinome (kinase panel) (Homo sapiens, UniProt P17612); conditions: PKAC-alpha (Entrez PRKACA); 1000 nM; read-out: Percent Control
T16 construct: purchased Eurofins DiscoverX

kinome (kinase panel) [17] = target: T17, kinome (kinase panel) (Mycobacterium tuberculosis, UniProt P9WI81); conditions: PKNB(M.tuberculosis) (Entrez pknB); 1000 nM; read-out: Percent Control
T17 construct: purchased Eurofins DiscoverX

kinome (kinase panel) [18] = target: T18, kinome (kinase panel) (Homo sapiens, UniProt Q13873); conditions: BMPR2; 1000 nM; read-out: Percent Control
T18 construct: purchased Eurofins DiscoverX

kinome (kinase panel) [19] = target: T19, kinome (kinase panel) (Homo sapiens, UniProt Q8TBX8); conditions: PIP5K2C (Entrez PIP4K2C); 1000 nM; read-out: Percent Control
T19 construct: purchased Eurofins DiscoverX

kinome (kinase panel) [20] = target: T20, kinome (kinase panel) (Homo sapiens, UniProt O76039); conditions: CDKL5; 1000 nM; read-out: Percent Control
T20 construct: purchased Eurofins DiscoverX

kinome (kinase panel) [21] = target: T21, kinome (kinase panel) (Homo sapiens, UniProt Q7L7X3); conditions: TAOK1; 1000 nM; read-out: Percent Control
T21 construct: purchased Eurofins DiscoverX

kinome (kinase panel) [22] = target: T22, kinome (kinase panel) (Homo sapiens, UniProt P07949, V804L); conditions: read-out: Percent Control
T22 construct: purchased Eurofins DiscoverX
T22 sequence (P07949 29-1114 V804L): as the sequence (P07949 29-1114 M918T) above, with V776L, T890M counted along it

kinome (kinase panel) [23] = target: T23, kinome (kinase panel) (Homo sapiens, UniProt Q6DT37); conditions: DMPK2 (Entrez CDC42BPG); 1000 nM; read-out: Percent Control
T23 construct: purchased Eurofins DiscoverX

kinome (kinase panel) [24] = target: T24, kinome (kinase panel) (Homo sapiens, UniProt P29376); conditions: LTK; 1000 nM; read-out: Percent Control
T24 construct: purchased Eurofins DiscoverX
T24 sequence (P29376 17-864): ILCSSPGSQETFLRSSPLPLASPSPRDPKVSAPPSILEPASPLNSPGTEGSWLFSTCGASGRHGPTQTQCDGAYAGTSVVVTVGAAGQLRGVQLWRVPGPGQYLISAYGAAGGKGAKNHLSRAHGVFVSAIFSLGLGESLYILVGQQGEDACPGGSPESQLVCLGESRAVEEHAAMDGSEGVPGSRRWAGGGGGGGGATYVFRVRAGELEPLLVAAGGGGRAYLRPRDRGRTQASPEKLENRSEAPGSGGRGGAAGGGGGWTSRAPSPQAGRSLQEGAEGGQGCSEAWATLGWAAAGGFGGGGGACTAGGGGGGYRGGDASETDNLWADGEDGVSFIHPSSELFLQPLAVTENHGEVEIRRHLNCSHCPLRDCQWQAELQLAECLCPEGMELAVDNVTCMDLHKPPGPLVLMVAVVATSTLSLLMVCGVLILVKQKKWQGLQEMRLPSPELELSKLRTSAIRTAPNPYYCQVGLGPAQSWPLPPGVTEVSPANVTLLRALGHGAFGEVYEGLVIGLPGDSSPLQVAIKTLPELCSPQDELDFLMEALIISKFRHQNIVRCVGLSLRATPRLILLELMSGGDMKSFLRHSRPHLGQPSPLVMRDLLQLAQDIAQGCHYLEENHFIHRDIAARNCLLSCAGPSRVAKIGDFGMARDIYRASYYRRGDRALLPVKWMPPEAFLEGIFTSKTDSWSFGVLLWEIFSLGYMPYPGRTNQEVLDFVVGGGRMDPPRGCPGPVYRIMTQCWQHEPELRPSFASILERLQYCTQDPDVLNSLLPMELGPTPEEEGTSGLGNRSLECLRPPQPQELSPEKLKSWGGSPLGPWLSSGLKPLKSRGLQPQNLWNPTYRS

kinome (kinase panel) [25] = target: T25, kinome (kinase panel) (Homo sapiens, UniProt Q9Y4K4); conditions: MAP4K5; 1000 nM; read-out: Percent Control
T25 construct: purchased Eurofins DiscoverX

kinome (kinase panel) [26] = target: T26, kinome (kinase panel) (Homo sapiens, UniProt P00533, L861Q); conditions: […]; 1000 nM; read-out: Percent Control
T26 construct: purchased Eurofins DiscoverX
T26 sequence (P00533 25-1210 L861Q): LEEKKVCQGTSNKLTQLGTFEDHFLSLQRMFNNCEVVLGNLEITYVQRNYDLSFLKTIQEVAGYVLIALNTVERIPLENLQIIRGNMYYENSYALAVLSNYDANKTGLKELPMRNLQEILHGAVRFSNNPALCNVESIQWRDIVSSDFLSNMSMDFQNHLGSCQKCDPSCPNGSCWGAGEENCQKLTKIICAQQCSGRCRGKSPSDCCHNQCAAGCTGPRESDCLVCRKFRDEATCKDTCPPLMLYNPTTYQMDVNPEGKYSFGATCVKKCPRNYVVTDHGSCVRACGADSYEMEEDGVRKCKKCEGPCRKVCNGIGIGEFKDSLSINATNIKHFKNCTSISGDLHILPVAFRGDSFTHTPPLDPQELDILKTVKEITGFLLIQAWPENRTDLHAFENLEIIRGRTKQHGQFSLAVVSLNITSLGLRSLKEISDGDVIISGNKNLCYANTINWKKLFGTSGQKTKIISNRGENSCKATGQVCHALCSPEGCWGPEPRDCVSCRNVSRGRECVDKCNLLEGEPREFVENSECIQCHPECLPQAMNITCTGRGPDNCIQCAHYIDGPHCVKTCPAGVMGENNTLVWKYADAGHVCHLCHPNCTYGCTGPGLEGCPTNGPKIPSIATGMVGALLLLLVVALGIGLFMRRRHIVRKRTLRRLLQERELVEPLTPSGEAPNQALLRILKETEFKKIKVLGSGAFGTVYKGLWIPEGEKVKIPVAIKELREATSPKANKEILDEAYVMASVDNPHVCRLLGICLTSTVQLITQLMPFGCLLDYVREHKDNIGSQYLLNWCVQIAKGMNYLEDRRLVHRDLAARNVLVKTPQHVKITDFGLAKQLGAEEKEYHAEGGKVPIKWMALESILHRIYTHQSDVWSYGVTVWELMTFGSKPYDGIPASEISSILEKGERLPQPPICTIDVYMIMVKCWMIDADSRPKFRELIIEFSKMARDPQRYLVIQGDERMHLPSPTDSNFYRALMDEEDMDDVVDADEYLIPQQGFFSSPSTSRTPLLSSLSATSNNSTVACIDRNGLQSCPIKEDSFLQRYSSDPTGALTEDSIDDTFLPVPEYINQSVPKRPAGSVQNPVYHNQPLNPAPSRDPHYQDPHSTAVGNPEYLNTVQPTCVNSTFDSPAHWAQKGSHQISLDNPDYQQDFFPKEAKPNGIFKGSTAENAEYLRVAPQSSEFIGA

kinome (kinase panel) [27] = target: T27, kinome (kinase panel) (Homo sapiens, UniProt P42336, E545A); conditions: read-out: Percent Control
T27 construct: purchased Eurofins DiscoverX

kinome (kinase panel) [28] = target: T28, kinome (kinase panel) (Homo sapiens, UniProt Q9Y6R4); conditions: MAP3K4; 1000 nM; read-out: Percent Control
T28 construct: purchased Eurofins DiscoverX

kinome (kinase panel) [29] = target: T29, kinome (kinase panel) (Homo sapiens, UniProt Q13043); conditions: MST1 (Entrez STK4); 1000 nM; read-out: Percent Control
T29 construct: purchased Eurofins DiscoverX

kinome (kinase panel) [30] = target: T30, kinome (kinase panel) (Homo sapiens, UniProt P78356); conditions: PIP5K2B (Entrez PIP4K2B); 1000 nM; read-out: Percent Control
T30 construct: purchased Eurofins DiscoverX
T30 sequence (P78356 whole entry): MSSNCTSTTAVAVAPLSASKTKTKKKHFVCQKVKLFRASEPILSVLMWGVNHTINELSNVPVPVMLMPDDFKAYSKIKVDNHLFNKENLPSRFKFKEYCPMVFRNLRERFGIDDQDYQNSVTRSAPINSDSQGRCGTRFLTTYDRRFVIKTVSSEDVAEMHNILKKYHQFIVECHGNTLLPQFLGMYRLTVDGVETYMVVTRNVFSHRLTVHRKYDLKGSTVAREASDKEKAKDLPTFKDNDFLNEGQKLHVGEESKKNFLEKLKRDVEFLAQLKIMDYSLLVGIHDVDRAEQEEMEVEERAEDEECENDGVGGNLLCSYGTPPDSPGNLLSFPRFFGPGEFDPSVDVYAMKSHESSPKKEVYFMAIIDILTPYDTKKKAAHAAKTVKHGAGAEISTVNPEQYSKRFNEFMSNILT

kinome (kinase panel) [31] = target: T31, kinome (kinase panel) (Homo sapiens, UniProt Q6P2M8); conditions: CAMK1B (Entrez PNCK); 1000 nM; read-out: Percent Control
T31 construct: purchased Eurofins DiscoverX

kinome (kinase panel) [32] = target: T32, kinome (kinase panel) (Homo sapiens, UniProt O14730); conditions: RIOK3; 1000 nM; read-out: Percent Control
T32 construct: purchased Eurofins DiscoverX

kinome (kinase panel) [33] = target: T33, kinome (kinase panel) (Homo sapiens, UniProt Q9UQM7); conditions: CAMK2A; 1000 nM; read-out: Percent Control
T33 construct: purchased Eurofins DiscoverX
T33 sequence (Q9UQM7 whole entry): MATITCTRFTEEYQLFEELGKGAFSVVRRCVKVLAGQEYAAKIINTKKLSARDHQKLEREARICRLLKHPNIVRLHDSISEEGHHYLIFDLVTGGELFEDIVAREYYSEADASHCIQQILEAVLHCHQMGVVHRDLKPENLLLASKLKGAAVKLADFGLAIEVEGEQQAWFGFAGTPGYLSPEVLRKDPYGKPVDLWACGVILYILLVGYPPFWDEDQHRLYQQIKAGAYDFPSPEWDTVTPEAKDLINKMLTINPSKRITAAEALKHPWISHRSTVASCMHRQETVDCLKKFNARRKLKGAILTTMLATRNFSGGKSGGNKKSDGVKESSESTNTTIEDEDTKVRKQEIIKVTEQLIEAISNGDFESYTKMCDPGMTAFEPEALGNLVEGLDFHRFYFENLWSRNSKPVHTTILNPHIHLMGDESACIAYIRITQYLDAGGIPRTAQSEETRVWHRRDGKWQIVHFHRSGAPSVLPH

## CN(C)C(=O)c1cc2cnc(Nc3ccc(-c4csc5c(=O)cc(N6CCOCC6)oc45)cc3)nc2n1C1CCCC1 [SRX3177]
Kinome (kinase panel) [1]
  remaining binding at 1 µM: 46%
Kinome (kinase panel) [2]
  remaining binding at 1 µM: 70%
Kinome (kinase panel) [3]
  remaining binding at 1 µM: 100%
Kinome (kinase panel) [4]
  remaining binding at 1 µM: 74%
Kinome (kinase panel) [5]
  remaining binding at 1 µM: 96%
Kinome (kinase panel) [6]
  remaining binding at 1 µM: 86%
Kinome (kinase panel) [7]
  remaining binding at 1 µM: 92%
Kinome (kinase panel) [8]
  remaining binding at 1 µM: 100%
Kinome (kinase panel) [9]
  remaining binding at 1 µM: 38%
Kinome (kinase panel) [10]
  remaining binding at 1 µM: 83%
Kinome (kinase panel) [11]
  remaining binding at 1 µM: 91%
Kinome (kinase panel) [12]
  remaining binding at 1 µM: 100%
Kinome (kinase panel) [13]
  remaining binding at 1 µM: 100%
Kinome (kinase panel) [14]
  remaining binding at 1 µM: 100%
Kinome (kinase panel) [15]
  remaining binding at 1 µM: 66%
Kinome (kinase panel) [16]
  remaining binding at 1 µM: 96%
Kinome (kinase panel) [17]
  remaining binding at 1 µM: 40%
Kinome (kinase panel) [18]
  remaining binding at 1 µM: 78%
Kinome (kinase panel) [19]
  remaining binding at 1 µM: 1.8%
Kinome (kinase panel) [20]
  remaining binding at 1 µM: 65%
Kinome (kinase panel) [21]
  remaining binding at 1 µM: 14%
Kinome (kinase panel) [22]
  remaining binding at 1 µM: 99%
Kinome (kinase panel) [23]
  remaining binding at 1 µM: 91%
Kinome (kinase panel) [24]
  remaining binding at 1 µM: 98%
Kinome (kinase panel) [25]
  remaining binding at 1 µM: 100%
Kinome (kinase panel) [26]
  remaining binding at 1 µM: 74%
Kinome (kinase panel) [27]
  remaining binding at 1 µM: 82%
Kinome (kinase panel) [28]
  remaining binding at 1 µM: 90%
Kinome (kinase panel) [29]
  remaining binding at 1 µM: 100%
Kinome (kinase panel) [30]
  remaining binding at 1 µM: 48%
Kinome (kinase panel) [31]
  remaining binding at 1 µM: 41%
Kinome (kinase panel) [32]
  remaining binding at 1 µM: 21%
Kinome (kinase panel) [33]
  remaining binding at 1 µM: 76%
